In article PMC10100877, “Identification of Small-Molecule Inhibitors of the Salmonella FraB Deglycase Using a Live-Cell Assay” (Microbiology Spectrum, 2023):
Structures can show the parent of a compound that is named as a salt.

test system: wild-type Salmonella (ASD200) live cells; assay: Live-cell growth assay, concentration-response (IC50/IC90) of the top 8 purchased compounds; assay type: cell-based, Salmonella enterica serovar Typhimurium; settings: 17 h, read-out: IC50 with live cells, value (95% CI), concentration that inhibits growth to 50%

Compound | IC50 [µM]
CCOc1ccc(N2C(=O)NC(=O)/C(=C/c3cc(Cl)c(O)c(OC)c3)C2=O)cc1 [611:D03] | 100

same assay, conditions: 17 h, read-out: IC90 with live cells, value (95% CI), concentration that inhibits growth to 90%

Compound | IC90 [µM]
CCOc1ccc(N2C(=O)NC(=O)/C(=C/c3cc(Cl)c(O)c(OC)c3)C2=O)cc1 [611:D03] | 240

same assay, conditions: M9 minimal medium, 5 mM glucose, 1 mM F-Asn, 17-h time point, 95% CI in brackets, read-out: IC50 with live cells, value (95% CI), concentration that inhibits growth to 50%

Compound | IC50 [µM]
Nc1cc(C(=O)O)ccc1Nc1ccccc1 [1609:K19, 3-amino-4-(phenylamino)benzoic acid] | 155
O=C(O)/C=C/Sc1ccccc1 [1737:K20] | 121
O=c1c(=NO)c(=O)c2ccccc12 [1669:M19, triketoindan-2-oxime] | 109
COc1ccc2[nH]c(SC)nc2c1 [1582:D17] | 143
C/C(=N\O)C(=O)c1ccc(Cl)cc1 [1789:D13] | 183
c1ccc([B-]2(c3ccccc3)[NH2+]CCO2)cc1 [3403:P13, 2,2-diphenyl-1,3,2-oxaazaborolidine internal salt] | 89

same assay, conditions: M9 minimal medium, 5 mM glucose, 1 mM F-Asn, 17-h time point, 95% CI in brackets, read-out: IC90 with live cells, value (95% CI), concentration that inhibits growth to 90%

Compound | IC90 [µM]
Nc1cc(C(=O)O)ccc1Nc1ccccc1 [1609:K19, 3-amino-4-(phenylamino)benzoic acid] | 411
O=C(O)/C=C/Sc1ccccc1 [1737:K20] | 503
O=c1c(=NO)c(=O)c2ccccc12 [1669:M19, triketoindan-2-oxime] | 297
COc1ccc2[nH]c(SC)nc2c1 [1582:D17] | 318
C/C(=N\O)C(=O)c1ccc(Cl)cc1 [1789:D13] | 348
c1ccc([B-]2(c3ccccc3)[NH2+]CCO2)cc1 [3403:P13, 2,2-diphenyl-1,3,2-oxaazaborolidine internal salt] | 184

test system: fraB mutants of Salmonella; assay: not given; set-up: method as in PMID 27258673; settings: F-Asn made with the small-scale synthesis route; cited from earlier work

Compound | IC50 [µM]
NC(=O)C[C@H](NCC(=O)[C@@H](O)[C@H](O)[C@H](O)CO)C(=O)O [F-Asn, fructose-asparagine] | ~20

target: recombinant FraB (Salmonella enterica subsp. enterica serovar Typhimurium, UniProt Q8ZLD0); assay: not given; assay type: biochemical; settings: not given
Sequence (Q8ZLD0 1-325): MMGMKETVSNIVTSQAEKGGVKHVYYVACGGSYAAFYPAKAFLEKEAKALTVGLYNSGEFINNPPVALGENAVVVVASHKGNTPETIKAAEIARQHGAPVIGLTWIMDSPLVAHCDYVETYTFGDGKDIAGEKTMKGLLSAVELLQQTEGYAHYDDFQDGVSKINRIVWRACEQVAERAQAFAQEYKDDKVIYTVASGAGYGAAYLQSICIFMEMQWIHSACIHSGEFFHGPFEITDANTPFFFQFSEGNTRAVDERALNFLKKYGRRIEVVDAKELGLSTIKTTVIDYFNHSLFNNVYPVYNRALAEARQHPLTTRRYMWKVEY

Compound | mode of inhibition of FraB
Nc1cc(C(=O)O)ccc1Nc1ccccc1 [1609:K19, 3-amino-4-(phenylamino)benzoic acid] | 116 ± 27; uncompetitive
O=c1c(=NO)c(=O)c2ccccc12 [1669:M19, triketoindan-2-oxime] | 26 ± 4; uncompetitive
c1ccc([B-]2(c3ccccc3)[NH2+]CCO2)cc1 [3403:P13, 2,2-diphenyl-1,3,2-oxaazaborolidine internal salt] | 27 ± 6 uncompetitive

same assay, conditions: read-out: IC50 with recombinant FraB (mean ± SE)

Compound | IC50 [µM]
Nc1cc(C(=O)O)ccc1Nc1ccccc1 [1609:K19, 3-amino-4-(phenylamino)benzoic acid] | 114 ± 3.8
O=C(O)/C=C/Sc1ccccc1 [1737:K20] | > 1000
O=c1c(=NO)c(=O)c2ccccc12 [1669:M19, triketoindan-2-oxime] | 133 ± 0.8
COc1ccc2[nH]c(SC)nc2c1 [1582:D17] | > 1000
C/C(=N\O)C(=O)c1ccc(Cl)cc1 [1789:D13] | > 1000
c1ccc([B-]2(c3ccccc3)[NH2+]CCO2)cc1 [3403:P13, 2,2-diphenyl-1,3,2-oxaazaborolidine internal salt] | 35 ± 0.9

same assay, conditions: read-out: Ki′ with FraB (mean ± SD)

Compound | Ki [µM]
Nc1cc(C(=O)O)ccc1Nc1ccccc1 [1609:K19, 3-amino-4-(phenylamino)benzoic acid] | 116 ± 27
O=c1c(=NO)c(=O)c2ccccc12 [1669:M19, triketoindan-2-oxime] | 26 ± 4
c1ccc([B-]2(c3ccccc3)[NH2+]CCO2)cc1 [3403:P13, 2,2-diphenyl-1,3,2-oxaazaborolidine internal salt] | 27 ± 6

test system: fraB mutants of Salmonella; assay: Growth inhibition (intoxication) of fraB mutants by F-Asn; assay type: cell-based; settings: new gram-scale preparations of F-Asn

Compound | IC50 [µM]
NC(=O)C[C@H](NCC(=O)[C@@H](O)[C@H](O)[C@H](O)CO)C(=O)O [F-Asn, fructose-asparagine] | ~30
